Results from article PMC6269559, “Design, Synthesis and Biological Evaluation of Ketoprofen Conjugated To RGD/NGR for Targeted Cancer Therapy” (Iranian Journal of Pharmaceutical Research : IJPR, 2018).

Key:
Type in all cases: cell-based
[1] = system: OVCAR-3 (high αVβ3); experiment: MTT cytotoxicity, OVCAR-3; conditions: 48 h; for Inhibitory % values, OVCAR3: 100 µM
Protocol: (§1) In order to evaluate the cytotoxic activity of the synthesis compounds, five cell lines: A2780 (low αVβ3), OVCAR-3 (high αVβ3), SKOV-3 (low CD13), HT-1080 (high CD13) and MCF-7 and fibroblast cell were selected. A2780 and MCF-7 are both cancer cells, but A2780 is […] cell line. Three concentrations of products were prepared and were evaluated after 48 h by using MTT method. Therefore cells cultured in culture media (RPMI1640) at 37 °C under 5% CO2 supplemented with 10% fetal bovine serum (FBS), 100 U/mL penicillin and 100 μg/mL streptomycin. Nearly 10^4 cells were seeded into 96-well plates and were grown for 24 h in incubator. Compounds and doxorubicin added to wells, cells were incubated at 37 °C for 48 h. Cells without any adding of compound were used as negative control, Doxorubicin was used as positive control and DMSO as the solvent of the test compounds. After 48 h, 10 μL of MTT (5 mg/mL in PBS) was added at 37 °C for 4 h. The medium with MTT was removed and 100 μL DMSO was added to each well, cover the plate from light, shake it for 5 min, then optical densities were read at 570 nm with a reference wavelength of 630 nm as background using a spectrophotometer plate reader (Infinite® M200, TECAN).

[2] = system: SKOV-3 (low CD13); experiment: MTT cytotoxicity, SKOV-3; conditions: 48 h; for Inhibitory % values, SKOV-3: 100 µM
Protocol: as §1

[3] = system: MCF-7; experiment: MTT cytotoxicity, MCF-7; conditions: 48 h; for Inhibitory % values, MCF-7: at 50 µM
Protocol: as §1

[4] = system: HT-1080 (high CD13); experiment: MTT cytotoxicity, HT-1080; conditions: 48 h; for Inhibitory % values, HT-1080: 100 µM
Protocol: as §1

[5] = system: A2780 (low αVβ3); experiment: MTT cytotoxicity, A2780; conditions: 48 h; for Inhibitory % values, A2780: 100 µM
Protocol: as §1

[6] = system: Fibroblast; experiment: MTT cytotoxicity, fibroblast; conditions: 100 µM, 48 h
Protocol: as §1

Compound | inhibition at 5 µM ([1]; Homo sapiens, OVCAR-3, at 5 µM (positive control), read-out: Inhibitory % values, OVCAR3) | inhibition at 5 µM ([2]; Homo sapiens, SK-OV-3, at 5 µM (positive control), read-out: Inhibitory % values, SKOV-3) | inhibition at 5 µM ([3]; Homo sapiens, MCF7, at 5 µM (positive control), read-out: Inhibitory % values, MCF-7) | inhibition at 5 µM ([4]; Homo sapiens, HT-1080, at 5 µM (positive control), read-out: Inhibitory % values, HT-1080) | inhibition at 5 µM ([5]; Homo sapiens, A2780, at 5 µM (positive control), read-out: Inhibitory % values, A2780) | Inhibitory % values, OVCAR3 [1] | inhibition at 100 µM ([2]; Homo sapiens, SK-OV-3, 100 µM, read-out: Inhibitory % values, SKOV-3) | Inhibitory % values, Fibroblast [6] | inhibition at 100 µM ([4]; Homo sapiens, HT-1080, 100 µM, read-out: Inhibitory % values, HT-1080) | Inhibitory % values, A2780 [5] | Inhibitory % values, SKOV-3 [2] | Inhibitory % values, MCF-7 [3] | Inhibitory % values, HT-1080 [4]
COc1cccc2c1C(=O)c1c(O)c3c(c(O)c1C2=O)C[C@@](O)(C(=O)CO)C[C@@H]3O[C@H]1C[C@H](N)[C@H](O)[C@H](C)O1 [Doxorubicin, reference compound] | 45.2 ± 1.25% | 29.5 ± 2.5% | 38 ± 0.53% | 26.7 ± 4.8% | 65 ± 1.2% | – | – | – | – | – | – | – | –
CC(C(=O)O)c1cccc(C(=O)c2ccccc2)c1 (stereo not shown) [Ketoprofen] | – | – | – | – | – | No inhibition | 14 ± 4.7% | No inhibition | 9.25 ± 1.3% | No inhibition | – | – | –
Arginine-Glycine-Aspartic acid [RGD] | – | – | – | – | – | No inhibition | – | No inhibition | – | 10 ± 2.2% | 9.5 ± 0.5% | No inhibition | No inhibition
Asparagine-Glycine-Arginine [NGR] | – | – | – | – | – | No inhibition | – | No inhibition | – | 6 ± 1.5% | No inhibition | No inhibition | 6.5 ± 0.5%
